Assay results as given in patent US11021481B2, “Substituted isoindolin-1-ones and 2,3-dihydro-1h-pyrrolo[3,4-c]pyridin-1-ones as HPK1 antagonists” (Nimbus Saturn, Inc., priority 2019, dated 2021).

What follows are molecules tested against HPK1 (Homo sapiens (Human), UniProt Q92918) (assay: HPK1 biochemical enzyme assay (microfluidic mobility shift assay)). Settings: 1.5 nM HPK1, ATP 1 mM final, 30 min preincubation, 60 min at RT, Caliper EZ Reader; read-out: HPK1 1000UMATP caliper IC50.
Chain of HPK1 (Q92918 whole entry): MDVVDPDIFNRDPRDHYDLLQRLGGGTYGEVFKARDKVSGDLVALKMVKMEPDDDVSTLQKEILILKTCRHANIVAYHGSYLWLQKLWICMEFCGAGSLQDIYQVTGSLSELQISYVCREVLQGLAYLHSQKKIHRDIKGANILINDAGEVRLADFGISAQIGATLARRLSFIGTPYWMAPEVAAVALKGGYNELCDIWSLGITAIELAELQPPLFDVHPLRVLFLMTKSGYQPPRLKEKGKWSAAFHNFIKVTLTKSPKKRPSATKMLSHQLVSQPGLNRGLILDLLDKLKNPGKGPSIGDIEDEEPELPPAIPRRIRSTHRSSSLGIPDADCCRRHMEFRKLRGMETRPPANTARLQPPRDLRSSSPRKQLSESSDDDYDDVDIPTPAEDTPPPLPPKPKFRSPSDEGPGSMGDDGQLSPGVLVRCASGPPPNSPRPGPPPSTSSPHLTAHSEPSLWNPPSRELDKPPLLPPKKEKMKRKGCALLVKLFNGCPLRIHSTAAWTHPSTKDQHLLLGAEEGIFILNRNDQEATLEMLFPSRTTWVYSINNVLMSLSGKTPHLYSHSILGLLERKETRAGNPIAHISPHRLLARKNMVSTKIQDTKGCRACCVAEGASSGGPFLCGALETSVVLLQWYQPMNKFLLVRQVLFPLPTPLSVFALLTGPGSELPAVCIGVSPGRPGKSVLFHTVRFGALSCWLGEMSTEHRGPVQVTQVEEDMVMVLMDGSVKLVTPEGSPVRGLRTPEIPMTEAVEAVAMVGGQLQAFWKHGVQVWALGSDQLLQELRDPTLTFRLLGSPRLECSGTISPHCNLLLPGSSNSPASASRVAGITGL
How it was run: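 Mobility shift readout of HPK1 activity after a 60 min RT reaction with 1 mM ATP, 1 μM substrate and 5 mM MgCl2. Enzyme/substrate mix was first exposed to compounds for 30 min, using ten-point curves topping at 3 μM final.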
`C[C@H](c1nc(Nc2ccc(-c3cnc4cc(F)ccn34)c3c2C(=O)NC3)ccc1[C@H]1CCOC1)N(C)C` [I-817, 7-((6-((R)-1-(dimethylami-no)ethyl)-5-((R)-THF-3-yl)pyridin-2-yl)amino)-4-(7-fluoroimidazo [1,2-a]pyridin-3-yl)isoindolin-1-one] showed an IC50 of less than 100 nM.
For `O=C1NCc2c(-c3cnc4cc(F)ccn34)ccc(Nc3cccc(N4CC[C@H]5CNC[C@H]54)n3)c21` [I-497, 4-(7-fluoroimidazo [1,2-a]pyridin-3-yl)-7-((6-((3aS,6aS)-hexahydropy-rrolo[3,4-b]pyrrol-1(2H)-yl)pyridin-2-yl)amino)isoin-dolin-1-one], the IC50 was less than 100 nM.
`CN1C[C@H](c2ccc(Nc3ccc(-c4cnc5cnccn45)c4c3C(=O)NC4)nc2)CC1=O` [I-331, (S)-4-(imidazo[1,2-a]pyrazin-3-yl)-7-((5-(1-methyl-5-oxopyrrolidin-3-yl)pyridin-2-yl)amino)isoin-dolin-1-one] showed an IC50 of less than 100 nM.
Molecule `Cn1ccc2c(-c3ncc(Nc4ccc(C5(O)CCOCC5)cn4)c4c3CNC4=O)ccnc21` [I-427] has an IC50 of less than 100 nM.
`Cc1ccn2c(-c3ccc(Nc4ccc(N5CCC[C@H](C(C)(C)O)C5)cn4)c4c3CNC4=O)cnc2n1` [I-225, 7-[[5-[(3S)-3-(1-hydroxy-1-methyl-ethyl)-1-piperidyl]-2-pyridyl]-amino]-4-(7-methylimidazo [1,2-a]pyrimidin-3-yl)isoindolin-1-one] gave an IC50 of less than 100 nM.
Work on `Cc1ccc(Nc2cnc(-c3ccnc4c3ccn4C)c3c2C(=O)NC3)nc1N(C)C1CNC1` [I-667, 7-((6-(azetidin-3-yl-(methyl)amino)-5-methylpyridin-2-yl)amino)-4-(1-methyl-1H-pyrrolo[2.3-b]pyridin-4-yl)-2,3-dihydro-1H-pyrrolo[3,4-c]pyridin-1-one] yielded an IC50 greater than 1000 nM.
`CN(C)CCN1CCC(c2ccc(Nc3ccc(-c4cnc5cc(F)ccn45)c4c3C(=O)NC4)nc2)CC1=O` (stereo not drawn) [I-406, 7-((5-(1-(2-(dimethylami-no)ethyl)-2-oxopiperidin-4-yl)pyridin-2-yl)amino)-4-(7-fluoroimidazo [1,2-a]pyridin-3-yl)isoindolin-1-one] was tested, and the IC50 was less than 100 nM.
`O=C1NCc2c(-c3cnc4cc(F)ccn34)ccc(Nc3ccc(N4CCC(O)(CN5CCCC5)CC4)cn3)c21` [I-387] gave an IC50 of less than 100 nM.
With `COC[C@@H]1CN(c2ccc(Nc3ccc(-c4cnc5c(F)c(C)ccn45)c4c3C(=O)NC4)nc2)CCO1` [I-579, (S)-4-(8-fluoro-7-methylimidazo [1,2-a]pyridin-3-yl)-7-((5-(2-(methoxymeth-yl)morpho-lino)pyridin-2-yl)amino)isoin-dolin-1-one] the IC50 was less than 100 nM.
`O=C1NCc2c(-c3cnc4cnccn34)ccc(Nc3ccc(N4C[C@H]5COC[C@H]5C4)cn3)c21` [I-318, 4-(imidazo[1,2-a]pyrazin-3-yl)-7-((5-((3aR,6aS)-tetrahydro-1H-furo[3,4-c]pyrrol-5(3H)-yl)pyridin-2-yl)amino)isoin-dolin-1-one] showed an IC50 of less than 100 nM.
In the case of `CN1CCN(c2ccc(Nc3cnc(-c4ccnc5[nH]ccc45)c4c3C(=O)NC4)nc2)CC1` [I-20, 7-[[5-(4-methylpiperazin-1-yl)-2-pyridyl]amino]-4-(1H-pyrrolo[2,3-b]pyridin-4-yl)-2,3-dihydropyrrolo [3,4-c]pyridin-1-one], the IC50 is reported as less than 100 nM.
Molecule `CN(C)Cc1nc(Nc2ccc(-c3cnc4cc(F)ccn34)c3c2C(=O)NC3)ccc1N1CCC[C@H](O)C1` [I-532, 7-[[6-[(dimethylamino)-methyl]-5-[(3S)-3-hydroxy-1-piperipyl]-2-pyridyl]amino]-4-(7-fluoroimidazo [1,2-a]pyridin-3-yl)isoindolin-1-one] has an IC50 of less than 100 nM.
For `CN1CC[C@]12CCN(c1cccc(Nc3cnc(-c4ccnc5c4ccn5C)c4c3C(=O)NC4)n1)C2` [I-615, (R)-7-((6-(1-methyl-1.6-diazaspiro[3,4]octan-6-yl)pyridin-2-yl)amino)-4-(1-methyl-1H-pyrrolo[2,3-b]pyridin-4-yl)-2,3-dihydro-1H-pyrrolo[3,4-c]pyridin-1-one], the IC50 was 100 to 1000 nM.
With `CO[C@H]1CCN(Cc2nc(Nc3ccc(-c4cnc5cc(F)ccn45)c4c3C(=O)NC4)ccc2[C@H]2CCOC2)C1` (stereo in doubt) [I-789] the IC50 was less than 100 nM.
`C[C@@H](O)[C@H]1CCCN(c2ccc(Nc3ccc(-c4cnc5cc(F)ccn45)c4c3C(=O)NC4)nc2)C1` (stereo in doubt) [I-364, 4-(7-fluoroimidazo [1,2-a]pyridin-3-yl)-7-((5-((R)-3-((S)-1-hydroxyethyl)piperidin-1-yl)pyridin-2-yl)amino)isoin-dolin-1-one] was tested, and the IC50 was less than 100 nM.
With `CN1CCN(c2ccc(Nc3cnc(-c4cccc5c4ccn5C)c4c3C(=O)NC4)nc2)CC1` [I-251, 4-(1-methyl-1H-indol-4-yl)-7-((5-(4-methylpiperazin-1-yl)pyridin-2-yl)amino)-2,3-dihydro-1H-pyrrolo[3,4-c]pyridin-1-one] the IC50 was less than 100 nM.
`Cn1ccc2c(-c3ncc(Nc4cccc(C5CNC5)n4)c4c3CNC4=O)ccnc21` [I-415, 7-((6-(azetidin-3-yl)pyridin-2-yl)amino)-4-(1-methyl-1H-pyrrolo[2.3-b]pyridin-4-yl)-2,3-dihydro-1H-pyrrolo[3,4-c]pyridin-1-one] gave an IC50 of less than 100 nM.
For `CC(C)(O)[C@H]1CCCN(c2ccc(Nc3cnc(-c4cnc5c(F)cccn45)c4c3C(=O)NC4)nc2)C1` [I-243, 4-(8-fluoroimidazo [1,2-a]pyridin-3-yl)-7-[[5-[(3S)-3-(1-hydroxy-1-methyl-ethyl)-1-piperidyl]-2-pyridyl]-amino]-2,3-dihydropyrrolo [3,4-c]pyridin-1-one], the IC50 was less than 100 nM.
Work on `O=C1NCc2c(-c3cnc4cc(C5CC5)ccn34)ccc(Nc3ccc(N4CCC(O)CC4)cn3)c21` [I-181, 4-(7-cyclopropyl-imidazo[1,2-a]pyridin-3-yl)-7-[[5-(4-hydroxy-1-piperidyl)-2-pyridyl]amino] isoindolin-1-one] yielded an IC50 of less than 100 nM.
`Cn1ccc2c(-c3ncc(Nc4ccc(N5CC[C@H](F)[C@@H](O)C5)cn4)c4c3CNC4=O)ccnc21` [I-417, 7-((5-((3S,4S)-4-fluoro-3-hydroxy-piperidin-1-yl)pyridin-2-yl)amino)-4-(1-methyl-1H-pyrrolo[2,3-b]pyridin-4-yl)-2,3-dihydro-1H-pyrrolo[3,4-c]pyridin-1-one] was tested, and the IC50 was less than 100 nM.
Molecule `COC1(c2ccc(Nc3ccc(-c4cnc5cc(F)ccn45)c4c3C(=O)NC4)nc2CN(C)C)CCOCC1` [I-830, 7-((6-((dimethylamino)-methyl)-5-(4-methoxytetra-hydro-2H-pyran-4-yl)pyridin-2-yl)amino)-4-(7-fluoroimidazo [1,2-a]pyridin-3-yl)isoindolin-1-one] has an IC50 of less than 100 nM.
In the case of `Cc1cccc2c(-c3ccc(Nc4ccc([C@@H]5CCOC5)c(CN(C)C)n4)c4c3CNC4=O)cnn12` [I-709, (S)-7-((6-((dimethylamino)-methyl)-5-(tetrahydrofuran-3-yl)pyridin-2-yl)amino)-4-(7-methylpyrazolo[1,5-a]pyridin-3-yl)isoindolin-1-one], the IC50 is reported as less than 100 nM.
`CN1CCN(c2ccc(Nc3ccc(-c4c[nH]c5cccnc45)c4c3C(=O)NC4)nc2)CC1` [I-26, 7-((5-(4-methylpiperazin-1-yl)pyridin-2-yl)amino)-4-(1H-pyrrolo[3,2-b]pyridin-3-yl)isoindolin-1-one] gave an IC50 of 100 to 1000 nM.
Molecule `CNCc1nc(Nc2cnc(-c3ccnc4c3ccn4C)c3c2C(=O)NC3)ccc1[C@H]1CCOC1` (single isomer, unassigned) [I-814] has an IC50 of less than 100 nM.
`CN1CCN(c2ccc(Nc3cnc(-c4c[nH]c5cc(O)ccc45)c4c3C(=O)NC4)nc2)CC1` [I-250] was tested, and the IC50 was 100 to 1000 nM.
For `CN1CCN(c2ccc(Nc3ccc(-c4ccnc5ocnc45)c4c3C(=O)NC4)nc2)CC1` [I-270, 7-((5-(4-methylpiperazin-1-yl)pyridin-2-yl)amino)-4-(oxazolo[5,4-b]pyridin-7-yl)isoindolin-1-one], the IC50 was 100 to 1000 nM.
Work on `Cc1ccn2c(-c3ncc(Nc4ccc(N5CCC(O)CC5)cn4)c4c3CNC4=O)cnc2c1` [I-154, 7-[[5-(4-hydroxy-1-piperidyl)-2-pyridyl]amino]-4-(7-methylimidazo [1,2-a]pyridin-3-yl)-2,3-dihydropyrrolo [3,4-c]pyridin-1-one] yielded an IC50 of less than 100 nM.
`CO[C@H]1CC[C@H](CO)N(c2ccc(Nc3ccc(-c4cnn5c4CCCC5)c4c3C(=O)NC4)nc2)C1` [I-571, 7-((5-((2R,5S)-2-(hydroxymeth-yl)-5-methoxy-piperidin-1-yl)pyridin-2-yl)amino)-4-(4,5,6,7-tetrahydropyra-zolo[1,5-a]pyridin-3-yl)isoindolin-1-one] was tested, and the IC50 was less than 100 nM.
`C[C@@H]1COc2c(-c3ccc(Nc4ccc(N5CCN(C)CC5)cn4)c4c3CNC4=O)cnn2C1` [I-261, (S)-4-(6-methyl-6,7-dihydro-5H-pyrazolo[5,1-b][l,3]oxazin-3-yl)-7-((5-(4-methylpiperazin-1-yl)pyridin-2-yl)amino)isoin-dolin-1-one] showed an IC50 of less than 100 nM.
`C[C@H]1CCn2ncc(-c3ccc(Nc4ccc(N5CCN(C)CC5)cn4)c4c3CNC4=O)c2C1` [I-264, (S)-4-(5-methyl-4,5,6,7-tetrahydropyra-zolo[1,5-a]pyridin-3-yl)-7-((5-(4-methylpiperazin-1-yl)pyridin-2-yl)amino)isoin-dolin-1-one] showed an IC50 of less than 100 nM.
Molecule `Cn1ccc2c(-c3c(Cl)cc(Nc4ccc(N5CCC(O)CC5)cn4)c4c3CNC4=O)ccnc21` [I-190, 5-chloro-7-[[5-(4-hydroxy-1-piperidyl)-2-pyridyl]amino]-4-(1-methylpyrrolo[2,3-b]pyridin-4-yl)isoindolin-1-one] has an IC50 of less than 100 nM.
For `O=C1NCc2c(-c3cnc4cnccn34)ccc(Nc3cc(N4CCC(O)CC4)ccn3)c21` [I-324, 7-((4-(4-hydroxy-piperidin-1-yl)pyridin-2-yl)amino)-4-(imidazo[1,2-a]pyrazin-3-yl)isoindolin-1-one], the IC50 was greater than 1000 nM.
In the case of `CN1CCN(c2ccc(Nc3ccc(-c4ccnc5c4ccn5CC(N)=O)c4c3C(=O)NC4)nc2)CC1` [I-269, 2-(4-(7-((5-(4-methylpiperazin-1-yl)pyridin-2-yl)amino)-1-oxoisoindolin-4-yl)-lH-pyrrolo[2.3-b]pyridin-1-yl)acctamide], the IC50 is reported as less than 100 nM.
